{"source": "patent US10183938B2", "about": "“Geminal substituted quinuclidine amide compounds as agonists of α-7 nicotonic acetylcholine receptors” (AXOVANT SCIENCES GMBH, priority 2014, dated 2019)", "note": "Counter-ions that a name gives are not always drawn.", "data": [{"target": "human 5-HT3 serotonin receptors (Homo sapiens (Human), UniProt P46098)", "sequence (P46098 24-478)": "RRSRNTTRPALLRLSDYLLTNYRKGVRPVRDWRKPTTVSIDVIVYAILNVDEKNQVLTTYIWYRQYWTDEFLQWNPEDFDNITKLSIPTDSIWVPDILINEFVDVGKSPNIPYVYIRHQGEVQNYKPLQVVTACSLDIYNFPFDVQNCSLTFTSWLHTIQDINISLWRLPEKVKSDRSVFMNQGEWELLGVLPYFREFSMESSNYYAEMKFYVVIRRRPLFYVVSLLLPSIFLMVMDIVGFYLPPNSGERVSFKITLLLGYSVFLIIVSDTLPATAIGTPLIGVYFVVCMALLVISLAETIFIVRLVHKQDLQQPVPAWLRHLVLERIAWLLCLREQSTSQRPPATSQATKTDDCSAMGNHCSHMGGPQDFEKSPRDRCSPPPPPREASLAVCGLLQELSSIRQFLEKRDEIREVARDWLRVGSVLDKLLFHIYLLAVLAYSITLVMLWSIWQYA", "test": "[3H]BRL 43694 competition binding", "details": "CHO cell membranes, [3H]BRL 43694, Cheng Prusoff; read-out: h-5HT3 Ki", "units": {"Ki": "µM"}, "values": [{"smiles": "CN(C)c1cccc2cc(C(=O)N[C@@H]3C4CCN(CC4)C34CC4)sc12", "note": "[(R)-178, (R)-7-(dimethylamino)-N-(1′-azaspiro[cyclopropane-1,2′-bicyclo[2.2.2]octan]-3′-yl)benzo[b]thiophene-2-carboxamide hydrochloride]", "Ki": 0.4}, {"smiles": "O=C(N[C@@H]1C2CCN(CC2)C12CC2)c1cc2cccc(C3CC3)c2s1", "note": "[(R)-165, (R)-7-cyclopropyl-N-(1′-azaspiro[cyclopropane-1,2′-bicyclo[2.2.2]octan]-3′-yl)benzo[b]thiophene-2-carboxamide hydrochloride]", "Ki": 0.2}, {"smiles": "CC1(C)[C@H](NC(=O)c2cc3cc(F)c(Cl)c(F)c3s2)C2CCN1CC2", "note": "[(R)-125, (R)-6-chloro-N-(2,2-dimethylquinuclidin-3-yl)-5,7-difluorobenzo[b]thiophene-2-carboxamide hydrochloride]", "Ki": "> 10"}, {"smiles": "CC(C)(C)c1cccc2cc(C(=O)N[C@@H]3C4CCN(CC4)C34CC4)sc12", "note": "[(R)-184, (R)-7-(tert-butyl)-N-(1′-azaspiro[cyclopropane-1,2′-bicyclo[2.2.2]octan]-3′-yl)benzo[b]thiophene-2-carboxamide hydrochloride]", "Ki": 0.11}, {"smiles": "O=C(N[C@@H]1C2CCN(CC2)C12CC2)c1cc2cccc(-c3ccccc3)c2s1", "note": "[(R)-186, (R)-7-phenyl-N-(1′-azaspiro[cyclopropane-1,2′-bicyclo[2.2.2]octan]-3′-yl)benzo[b]thiophene-2-carboxamide hydrochloride]", "Ki": 0.03}, {"smiles": "O=C(N[C@@H]1C2CCN(CC2)C12CC2)c1cc2cc(F)c(Cl)cc2s1", "note": "[(R)-172, (R)-6-chloro-5-fluoro-N-(1′-azaspiro[cyclopropane-1,2′-bicyclo[2.2.2]octan]-3′-yl)benzo[b]thiophene-2-carboxamide hydrochloride]", "Ki": 4.9}, {"smiles": "COc1c(F)ccc2cc(C(=O)N[C@@H]3C4CCN(CC4)C34CC4)sc12", "note": "[(R)-197, (R)-6-fluoro-7-methoxy-N-(1′-azaspiro[cyclopropane-1,2′-bicyclo[2.2.2]octan]-3′-yl)benzo[b]thiophene-2-carboxamide hydrochloride]", "Ki": 2.8}, {"smiles": "CC(C)Oc1cccc2cc(C(=O)N[C@@H]3C4CCN(CC4)C34CC4)sc12", "note": "[(R)-191, (R)-7-isopropoxy-N-(1′-azaspiro[cyclopropane-1,2′-bicyclo[2.2.2]octan]-3′-yl)benzo[b]thiophene-2-carboxamide hydrochloride]", "Ki": 0.16}, {"smiles": "CCOc1ccc2cc(C(=O)N[C@@H]3C4CCN(CC4)C34CC4)sc2c1", "note": "[(R)-189, (R)-6-ethoxy-N-(1′-azaspiro[cyclopropane-1,2′-bicyclo[2.2.2]octan]-3′-yl)benzo[b]thiophene-2-carboxamide hydrochloride]", "Ki": "> 10"}, {"smiles": "O=C(N[C@@H]1C2CCN(CC2)C12CC2)c1cc2ccc(Cl)c(C(F)(F)F)c2s1", "note": "[(R)-152, (R)-6-chloro-N-(1′-azaspiro[cyclopropane-1,2′-bicyclo[2.2.2]octan]-3′-yl)-7-(trifluoromethyl)benzo[b]thiophene-2-carboxamide hydrochloride]", "Ki": "> 10"}, {"smiles": "CC1(C)[C@H](NC(=O)c2cc3cccc(-c4nccs4)c3s2)C2CCN1CC2", "note": "[(R)-129, (R)—N-(2,2-dimethylquinuclidin-3-yl)-7-(thiazol-2-yl)benzo[b]thiophene-2-carboxamide hydrochloride]", "Ki": 0.44}, {"smiles": "COCc1cccc2cc(C(=O)N[C@@H]3C4CCN(CC4)C34CC4)sc12", "note": "[(R)-199, (R)-7-(methoxymethyl)-N-(1′-azaspiro[cyclopropane-1,2′-bicyclo[2.2.2]octan]-3′-yl)benzo[b]thiophene-2-carboxamide hydrochloride]", "Ki": 0.58}, {"smiles": "CC1(C)[C@H](NC(=O)c2cc3cccc(C4CC4)c3s2)C2CCN1CC2", "note": "[(R)-118, (R)-7-cyclopropyl-N-(2,2-dimethylquinuclidin-3-yl)benzo[b]thiophene-2-carboxamide hydrochloride]", "Ki": 0.23}]}]}
